Reference: paper PMC6364417, “Kinase inhibitor library screening identifies synergistic drug combinations effective in sensitive and resistant melanoma cells” (Journal of Experimental & Clinical Cancer Research : CR, 2019)

Key:
Experiment in all cases: Kinase inhibitor library screening, PrestoBlue cell viability, 1 or 10 μM, 72 h
[1] = tested on: IGR37-GP cells (Dabrafenib-resistant); details: for cell viability, IGR37 GP, 10μΜ / cell viability, IGR37 GP, 1μΜ: 72 h; for cell viability, IGR37 GP, 1μΜ: in %; for viability at 1 µM / viability at 10 µM: Homo sapiens, IGR-37, 72 h; for viability at 1 µM: read-out: cell viability, IGR37 GP, 1μΜ; for viability at 10 µM: read-out: cell viability, IGR37 GP, 10μΜ
[2] = tested on: 501Mel-GP cells (Dabrafenib-resistant); details: 72 h; for cell viability, 501Mel GP, 1μΜ / cell viability, 501Mel GP, 10μΜ: in %; for viability at 1 µM / viability at 10 µM: Homo sapiens; for viability at 1 µM: read-out: cell viability, 501Mel GP, 1μΜ; for viability at 10 µM: read-out: cell viability, 501Mel GP, 10μΜ
[3] = tested on: 501Mel-XP cells (Vemurafenib-resistant); details: 72 h; for cell viability, 501Mel XP, 1μΜ / cell viability, 501Mel XP, 10μΜ: in %; for viability at 1 µM / viability at 10 µM: Homo sapiens; for viability at 1 µM: read-out: cell viability, 501Mel XP, 1μΜ; for viability at 10 µM: read-out: cell viability, 501Mel XP, 10μΜ
IGR37 cells (parental) = details: for cell viability, IGR37 Parental, 10μΜ / cell viability, IGR37 Parental, 1μΜ: 72 h, in %; for viability at 1 µM / viability at 10 µM: Homo sapiens, IGR-37, 72 h; for viability at 1 µM: read-out: cell viability, IGR37 Parental, 1μΜ; for viability at 10 µM: read-out: cell viability, IGR37 Parental, 10μΜ
[4] = tested on: A375-XP cells (Vemurafenib-resistant); details: for cell viability, A375 XP, 1μΜ / cell viability, A375 XP, 10μΜ: 72 h, in %; for viability at 1 µM / viability at 10 µM: Homo sapiens, A-375, 72 h; for viability at 1 µM: read-out: cell viability, A375 XP, 1μΜ; for viability at 10 µM: read-out: cell viability, A375 XP, 10μΜ
[5] = tested on: A375-GP cells (Dabrafenib-resistant); details: for cell viability, A375 GP, 1μΜ / cell viability, A375 GP, 10μΜ: 72 h, in %; for viability at 1 µM / viability at 10 µM: Homo sapiens, A-375, 72 h; for viability at 1 µM: read-out: cell viability, A375 GP, 1μΜ; for viability at 10 µM: read-out: cell viability, A375 GP, 10μΜ
[6] = tested on: IGR37-XP cells (Vemurafenib-resistant); details: for cell viability, IGR37 XP, 10μΜ / cell viability, IGR37 XP, 1μΜ: 72 h; for cell viability, IGR37 XP, 1μΜ: in %; for viability at 1 µM / viability at 10 µM: Homo sapiens, IGR-37, 72 h; for viability at 1 µM: read-out: cell viability, IGR37 XP, 1μΜ; for viability at 10 µM: read-out: cell viability, IGR37 XP, 10μΜ
A375 cells (parental) = details: for cell viability, A375 Parental, 1μΜ / cell viability, A375 Parental, 10μΜ: 72 h, in %; for viability at 1 µM / viability at 10 µM: Homo sapiens, A-375, 72 h; for viability at 1 µM: read-out: cell viability, A375 Parental, 1μΜ; for viability at 10 µM: read-out: cell viability, A375 Parental, 10μΜ
501Mel cells (parental) = details: 72 h; for cell viability, 501Mel Parental, 1μΜ / cell viability, 501Mel Parental, 10μΜ: in %; for viability at 1 µM / viability at 10 µM: Homo sapiens; for viability at 1 µM: read-out: cell viability, 501Mel Parental, 1μΜ; for viability at 10 µM: read-out: cell viability, 501Mel Parental, 10μΜ
Method in brief: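 Values are % viability versus untreated wells, measured by PrestoBlue after a 72 h drug exposure. Screens covered the parental line plus sublines rendered resistant to Vemurafenib or Dabrafenib, each analysed in at least duplicate.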

| Compound | cell viability, IGR37 GP, 10μΜ [1] [%] | cell viability, IGR37 GP, 1μΜ [1] | cell viability, 501Mel GP, 1μΜ [2] | cell viability, 501Mel GP, 10μΜ [2] | cell viability, 501Mel XP, 1μΜ [3] | cell viability, 501Mel XP, 10μΜ [3] | cell viability, IGR37 Parental, 10μΜ (IGR37 cells (parental)) | cell viability, A375 XP, 1μΜ [4] | cell viability, A375 XP, 10μΜ [4] | cell viability, A375 GP, 1μΜ [5] | cell viability, A375 GP, 10μΜ [5] | cell viability, IGR37 XP, 10μΜ [6] [%] | cell viability, A375 Parental, 1μΜ (A375 cells (parental)) | cell viability, 501Mel Parental, 1μΜ (501Mel cells (parental)) | cell viability, 501Mel Parental, 10μΜ (501Mel cells (parental)) | cell viability, IGR37 Parental, 1μΜ (IGR37 cells (parental)) | cell viability, IGR37 XP, 1μΜ [6] | cell viability, A375 Parental, 10μΜ (A375 cells (parental)) | viability at 1 µM [1] [%] | viability at 10 µM [1] [%] | further results |
| --- | --- | --- | --- | --- | --- | --- | --- | --- | --- | --- | --- | --- | --- | --- | --- | --- | --- | --- | --- | --- | --- |
| COc1cccc(-c2cc(=O)c3ccccc3o2)c1N [PD98059] | 88.7 | 94.1 | 104.1 | 84.1 | 97.3 | 80.0 | 81.4 | 102.6 | 94.1 | 95.5 | 83.6 | 61.9 | 98.4 | 98.8 | 79.8 | – | – | – | – | – | – |
| COc1cc2ncnc(Nc3cccc(Br)c3)c2cc1OC.Cl [PD153035 HCl] | 73.7 | – | 110.1 | 28.5 | 99.4 | 16.6 | 42.8 | 108.7 | 97.5 | 106.0 | 105.2 | 30.6 | 108.8 | 107.0 | 38.0 | 115.8 | 82.2 | 108.3 | – | – | – |
| CCN(CC)CCCCNc1ncc2cc(-c3cc(OC)cc(OC)c3)c(NC(=O)NC(C)(C)C)nc2n1 [PD173074] | – | – | – | – | – | – | – | – | – | – | – | – | – | – | – | – | – | – | 91.4 | 50 | viability at 1 µM [2]: 106%; viability at 10 µM [2]: 13.2%; viability at 1 µM [3]: 97.2%; viability at 10 µM [3]: -0.025%; viability at 1 µM (IGR37 cells (parental)): 99.8%; viability at 10 µM (IGR37 cells (parental)): 75.6%; viability at 1 µM [4]: 100%; viability at 10 µM [4]: 72%; viability at 1 µM [5]: 98.2%; viability at 10 µM [5]: 62.8%; viability at 1 µM [6]: 92.2%; viability at 10 µM [6]: 14.7%; viability at 1 µM (A375 cells (parental)): 105%; viability at 10 µM (A375 cells (parental)): 70.1%; viability at 1 µM (501Mel cells (parental)): 103%; viability at 10 µM (501Mel cells (parental)): 11.8% |
| O=C(NOCC(O)CO)c1cc(Br)c(F)c(F)c1Nc1ccc(I)cc1F (centres unmarked) [PD318088] | 66.4 | 76.0 | 99.4 | 79.2 | 84.8 | 57.7 | 36.8 | 36.7 | 11.2 | 31.6 | 15.6 | 22.8 | 19.2 | 54.5 | 54.4 | 37.8 | 63.3 | 16.4 | – | – | – |
| O=C(NOC[C@H](O)CO)c1ccc(F)c(F)c1Nc1ccc(I)cc1F [PD0325901] | – | – | – | – | – | – | – | – | – | – | – | – | – | – | – | – | – | – | 76.5 | 46.2 | viability at 1 µM [2]: 87.8%; viability at 10 µM [2]: 66.1%; viability at 1 µM [3]: 72%; viability at 10 µM [3]: 54.1%; viability at 1 µM (IGR37 cells (parental)): 34.5%; viability at 10 µM (IGR37 cells (parental)): 35.2%; viability at 1 µM [4]: 11.5%; viability at 10 µM [4]: 11.4%; viability at 1 µM [5]: 12.6%; viability at 10 µM [5]: 13.1%; viability at 1 µM [6]: 58.6%; viability at 10 µM [6]: 15.7%; viability at 1 µM (A375 cells (parental)): 17.6%; viability at 10 µM (A375 cells (parental)): 17.5%; viability at 1 µM (501Mel cells (parental)): 56.4%; viability at 10 µM (501Mel cells (parental)): 64.3% |
